Experimental data reported in patent US5877210A, “Phosphotyrosine phosphatase inhibitors or phosphotyrosine kinase activators for controlling cellular proliferation” (priority 1995, dated 1999).
“And” between values parts separate entries of the source, which are not always exact repeats. Equal entries are not always repeated. “Also recorded” adds a separate entry of the source. Where two headings read alike, the source gives them in different places.

Legend:
[1] = tested on: Ramos cells; experiment: Anti-phosphotyrosine western blot of cell lysates; format: cell-based, human
[2] = tested on: Jurkat; experiment: Anti-phosphotyrosine immunoblot; format: cell-based, human
[3] = tested on: A20; experiment: [3H]thymidine incorporation assay; format: cell-based, murine; settings: for [3H]cpm incorporation: seven days; for [3H]-thymidine radioactivity incorporated: 5 days
Method: (§1) For each cell type, the cells were passaged uniformly for all drug doses given during the seven-day period. The cells were then pulsed for six hours with [^3 H]thymidine. The extent of DNA synthesis was then determined by counting the radioactivity incorporated into the cells.
(§2) For assays of cellular proliferation, cells were grown five days in the presence of the indicated concentrations of BMLOV, pulsed 6 hr with [^3 H]-thymidine (New England Nuclear, Boston, Mass.), and counted in a liquid scintillation counter. Human peripheral blood lymphocytes (PBL) from normal volunteers were isolated from lymphocyte separation medium (Litton Bionetics, Kensington, Md.) by density gradient centrifugation. Monocytes were depleted from PBL by two rounds of plastic absorption for 30 minutes at 37° C. B cells were enriched for by negative selection using complement plus monoclonal antibodies to CD2, CD3, CD4, and CD8 for complement depletion. Clonogenic assays of colony formation in methylcellulose medium were performed as previously described (F. M. Uckun et al. (1992), supra).
The cell lines A20, 70Z-3, L1210, and P388D were used. A20 is a B cell lymphoma cell line; 70Z/3 is a B cell leukemia cell line; L1210 is a T cell leukemia cell line; and P388D is a myeloid leukemia cell line. The cells were grown for 5 days in the presence of pV(phen) and pulsed with [^3 H]-thymidine on day 5. The extent of DNA synthesis was then determined by counting the radioactivity incorporated into the cells, as in Example 5, supra. […] The effects on L1210 cells and P388D cells are particularly noteworthy because these cell lines have been extensively used by the National Cancer Institute to identify anti-cancer drugs.

[4] = tested on: Ramos B cells; experiment: Cell cycle analysis by propidium iodide flow cytometry; format: cell-based, human
Method: Ramos B cells treated with various concentrations of BMLOV for 16 hours were examined for their DNA content by propidium iodide staining followed by FACScan flow cytometric analysis using the SFIT program.
Cells were fixed, permeabilized and stained for their DNA content with propidium iodide as previously described (D. H. Pluznik et al., "Colony Stimulating Factor (CSF) Controls Proliferation of CSF-Dependent Cells by Acting During the G1 Phase of the Cell Cycle," Proc. Natl. Acad. Sci. USA 81:7451-7455 (1984)). The stained cells were analyzed by flow cytometry on a FACScan (Becton-Dickinson) instrument. The percentage of cells in various stages of the cell cycle was calculated using the CellFIT program.
In FIG. 14, Ramos cells growing in log phase were treated with BMLOV for 48 hr at the indicated concentrations. DNA in the cells was stained with propidium iodide and quantitated by flow cytometry as described previously. The calculated percentage of cells at the stages of the cell cycle is shown. "A" marks apoptotic cells lacking normal amounts of DNA in the 5 μM dose panel.

[5] = tested on: Ramos; experiment: [3H]thymidine incorporation assay; format: cell-based, human; settings: for [3H]cpm incorporation: seven days
Method: as §1, §2
The effect of the variation of treatment time with pV(phen) on the inhibition of proliferation in Ramos cells is shown in Table 11. These cells were grown in pV(phen) for the indicated times, washed, and then grown in fresh media for the balance of the 5-day assay. These cells were pulsed with [^3 H]-thymidine on day 5.

[6] = tested on: CEM; format: cell-based, human
Text: The extent to which the T cells were being killed by BMLOV treatment relative to the Ramos B cells was therefore examined. […] The percentage of cells in each quadrant is indicated. The lower right quadrant contains the viable cells.

[7] = tested on: Syk tyrosine kinase; experiment: Syk tyrosine phosphorylation (anti-Syk immunoprecipitate, anti-phosphotyrosine blot) in Ramos B cells; format: cell-based, human; settings: 16 hours, no antigen receptor stimulation
Method: BMLOV is known to inhibit Src-family tyrosine kinases. […] Ramos B cells were treated with the indicated concentrations of BMLOV or pV(phen) for 16 hours. The cells were then lysed and the Syk tyrosine kinase was immunoprecipitated with anti-Syk antibodies. The tyrosine phosphorylation of Syk was examined by an anti-phosphotyrosine Western blot of the immunoprecipitated Syk protein following SDS-polyacrylamide gel electrophoresis (shown at left). The amount of Syk protein recovered was determined by anti-Syk Western blotting of identical samples (shown at right).
In the experiments shown in FIG. 23, cells were treated 16 h with BMLOV and then stimulated with α-μ for 5 min. Cells were then washed and resuspended in fresh media at equal concentrations of BMLOV at 37° C. Cells were harvested and lysted at times following the initiation of α-μ stimulation as indicated. Antibody binding in immunoblots was detected by ECL.

[8] = tested on: BCL1; experiment: [3H]thymidine incorporation assay; format: cell-based, murine; settings: for [3H]cpm incorporation: seven days
Method: as §1, §2

[9] = tested on: calf intestinal alkaline phosphatase; experiment: Alkaline phosphatase inhibition; format: biochemical
[10] = tested on: i.p. implanted P388 murine leukemia; experiment: In vivo antitumor test, P388

Cc1occc(=O)c1[O-].Cc1occc(=O)c1[O-].[O]=[V+2] [BMLOV, Bis(maltolato)oxovanadium (IV)]
level of tyrosine phosphorylation ([1]; 50 μM BMLOV, 16 hours): high levels of tyrosine phosphorylation | time at which tyrosine phosphorylation begins ([1]; 100 μM BMLOV): ≤ 8 min | induction of tyrosine phosphorylation compared with sodium orthovanadate ([1]; 100 μM each, 30 min): more potent than orthovanadate | induction of cellular tyrosine phosphorylation ([1]; Ramos B cells, varying doses, 1 hour or 16 h): induces tyrosine phosphorylation in a dose-dependent manner; also recorded: dose-dependent induction of tyrosine phosphorylation | tyrosine phosphorylation response to sIg crosslinking ([1]; particularly at early time points): enhanced the tyrosine phosphorylation response | induction of tyrosine phosphorylation ([2]; 16 hr): only low levels of tyrosine phosphorylation | [3H]cpm incorporation ([3]; 1 μM BMLOV): 419947 cpm | [3H]cpm incorporation ([3]; 5 μM BMLOV): 289932 cpm | [3H]cpm incorporation ([3]; 10 μM BMLOV): 66157 cpm | [3H]cpm incorporation ([3]; 25 μM BMLOV): 281 cpm | sensitivity of proliferation to BMLOV, in words ([3]; 25 μM, 5 or 7 days): very sensitive; also recorded: highly sensitive | proportion of cells in G2/M ([4]; 0 to 5 μM BMLOV): did not change substantially | proportion of cells in G1 ([4]; 5 μM BMLOV, control 34%): 14% | proportion of cells in S phase ([4]; 5 μM BMLOV, control 56%): 77% | effect on cell cycle distribution, in words ([4]; 16 hours, 0 to 5 μM BMLOV): preferentially deplete the proportion of cells in G1 while increasing the proportion in S phase | [3H]cpm incorporation ([5]; 1 μM BMLOV): 289936 cpm | [3H]cpm incorporation ([5]; 5 μM BMLOV): 65545 cpm | [3H]cpm incorporation ([5]; 10 μM BMLOV): 167 cpm | [3H]cpm incorporation ([5]; 25 μM BMLOV): 149 cpm | sensitivity of proliferation to BMLOV, in words ([5]; 10 and 25 μM, 5 or 7 days): highly sensitive | killing by BMLOV, in words ([6]; CEM, 25 μM BMLOV, 4 days): resistant to killing | tyrosine phosphorylation of Syk [7]: only very slight tyrosine phosphorylation of Syk; also recorded: induced tyrosine phosphorylation of Syk in a dose-dependent manner | [3H]cpm incorporation ([8]; 1 μM BMLOV): 265036 cpm | [3H]cpm incorporation ([8]; 5 μM BMLOV): 226714 cpm | [3H]cpm incorporation ([8]; 10 μM BMLOV): 55396 cpm | [3H]cpm incorporation ([8]; 25 μM BMLOV): 195 cpm | sensitivity of proliferation to BMLOV, in words ([8]; 25 μM, 5 or 7 days): highly sensitive | inhibition of calf intestinal alkaline phosphatase ([9]; 500 μM BMLOV): less than 10% | IC50 ([9]; Table 1, p-nitrophenyl phosphate substrate): > 500 µM | IC50 ([9]; Table 8): > 500 µM

[Na+].[O]=[V-]12([O][O]1)[O][O]2.c1cnc2c(c1)ccc1cccnc12 [pV(phen), sodium (1,10-phenanthroline) oxodiperoxovanadium (V)]
proteins tyrosine phosphorylated, compared with BMLOV ([1]; 16 hours, particularly at 10 μM): causes the tyrosine phosphorylation of a significantly larger group of proteins than does BMLOV | induction of tyrosine phosphorylation by pV(phen) ([1]; Ramos B cells, 16 hours): high level of tyrosine phosphorylation | Max. % T/C ([10]; Expt. 8457, 8 mg/kg/inj (MTD reached), d.1, ip, 8 mg/kg): < 125% and 105% | dose considered to be a MTD ([10]; daily i.p. injections days 1 to 5, Expt. 8459): 12 mg/kg per injection | excessively toxic, i.e. lethal, dose ([10]; single i.p. doses, Expt. 8457): greater than or equal to 32 mg/kg | induction of tyrosine phosphorylation by pV(phen) ([2]; Jurkat T cells, 16 hours): high level of tyrosine phosphorylation | [3H]-thymidine radioactivity incorporated ([3]; 5 μM pV(phen)): 73 ± 23 | [3H]-thymidine radioactivity incorporated ([3]; 10 μM pV(phen)): 76 ± 48 | [3H] Thymidine Incorporation ([5]; 1 μM pV(phen) for 4 hr, then fresh media to day 5): 540438 ± 86014 cpm | [3H] Thymidine Incorporation ([5]; 1 μM pV(phen) for 8 hr, then fresh media to day 5): 444806 ± 20361 cpm | [3H] Thymidine Incorporation ([5]; 1 μM pV(phen) for 24 hr, then fresh media to day 5): 396533 ± 16116 cpm | [3H] Thymidine Incorporation ([5]; 1 μM pV(phen) for 5 d): 1969 ± 1295 cpm | inhibition of proliferation ([5]; 1 μM pV(phen), full 5-day treatment): ≥ 99% | [3H] Thymidine Incorporation ([5]; 5 μM pV(phen) for 4 hr, then fresh media to day 5): 502956 ± 20963 cpm | [3H] Thymidine Incorporation ([5]; 5 μM pV(phen) for 8 hr, then fresh media to day 5): 351849 ± 7357 cpm | [3H] Thymidine Incorporation ([5]; 5 μM pV(phen) for 24 hr, then fresh media to day 5): 312 ± 83 cpm | [3H] Thymidine Incorporation ([5]; 5 μM pV(phen) for 5 d): 615 ± 268 cpm | [3H] Thymidine Incorporation ([5]; 10 μM pV(phen) for 4 hr, then fresh media to day 5): 554511 ± 10077 cpm | [3H] Thymidine Incorporation ([5]; 10 μM pV(phen) for 8 hr, then fresh media to day 5): 185021 ± 11112 cpm | [3H] Thymidine Incorporation ([5]; 10 μM pV(phen) for 24 hr, then fresh media to day 5): 1862 ± 1461 cpm | [3H] Thymidine Incorporation ([5]; 10 μM pV(phen) for 5 d): 982 ± 519 cpm | [3H] Thymidine Incorporation ([5]; 25 μM pV(phen) for 4 hr, then fresh media to day 5): 433034 ± 74272 cpm | [3H] Thymidine Incorporation ([5]; 25 μM pV(phen) for 8 hr, then fresh media to day 5): 877 ± 93 cpm | [3H] Thymidine Incorporation ([5]; 25 μM pV(phen) for 24 hr, then fresh media to day 5): 399 ± 231 cpm | [3H] Thymidine Incorporation ([5]; 25 μM pV(phen) for 5 d): 651 ± 295 cpm | cells killed ([6]; CEM, 10 μM pV(phen), three days): all the cells | cells killed ([6]; human, cem cells, 48 h, 10 µM): 98% | tyrosine phosphorylation of Syk [7]: strongly induces tyrosine phosphorylation of the Syk tyrosine kinase
